Test system: parental strain USDA 532C
Experiment: Kill rate of USDA 532C using the mutagen ethyl methanesulfonate (EMS)
Assay type: cell-based, Bradyrhizobia japonicum
Protocol: The following experiment(s) were performed to determine the application rate of the mutagen, ethyl methanosulfonate (EMS) that would give a 99.9-99.99 percent kill rate for parental strain USDA 532C. This rate determination will become part of the mutagenesis protocol used to generate desiccation-resistant putative mutants although the method of mutagenesis may evolve for efficiency.
Parental strain USDA 532C was grown in six 10 ml YEM disposable culture tubes for two days and 5 ml of the culture was inoculated into four 250 ml flasks containing 50 ml YEM medium. The flasks were incubated for two days at 30° C. shaker. The culture from the flasks were subsequently centrifuged in 50 ml disposable sterile tubes at 8,000 rpm for ten minutes in a Sorvall RC 6 Plus® centrifuge and combined into one tube. The pellet was re-suspended in 4 ml of fresh YEM medium and separated into four 1.5 ml microcentrifuge tubes. The tubes would each represent different application rates used for the mutagenesis process.
Once the culture have been aliquoted into separate tubes and the mutagen EMS (Sigma, C3H8O3S, FW 124.16, #M0880-1G) added to each tube, the tubes were vortexed vigorously and placed in an empty 250 ml flask. The flask containing the reaction tubes were incubated for 30 minutes at 30° C. in a shaker. Immediately following the incubation period, the tubes were washed five times with 0.16M sodium thiosulfate (STS, Fisher Chemical, Na2S2O3*5H2O, FW 248.18, #S445-3)) solution to inactivate the mutagen. After washing, the cells in the reaction tubes were sheared with 21 gauge syringe needle (BD 1 ml 21G1 Latex Free Syringe PrecisionGlide® Needle, 0.8 mm×25 mm, #309624) and dilutions were completed and plated on YEMA plates. The cell counts were available after five days incubation at 30° C. and the percent kill of the EMS application rate was calculated. To calculate the percent kill rate for each application rate, the following equation was used: ([cell count 0 μl EMS (control)−(cell count of μl EMS (treatment))÷cell count 0 μl EMS (control)]×100%). All other experiments following this experiment used this equation to calculate the percent kill rate.

[1] = Table 12, 25 μl EMS, decreased washing
[2] = Table 14 (repeat of Table 13), 40 μl EMS
[3] = Table 14 (repeat of Table 13), 45 μl EMS
[4] = Table 15 (repeat of Table 14), 45 μl EMS
[5] = Table 15 (repeat of Table 14), 50 μl EMS

In the case of CCOS(C)(=O)=O [EMS, ethyl methanesulfonate], the “Cell counts (approximate cfu/ml)” value (Table 10, 10 μl EMS, 30 minutes at 30° C.) is reported as “no difference”, the “Cell counts (approximate cfu/ml)” value (Table 11, 15 μl EMS) is reported as 2.24 × 10^9 cfu/ml and the Percent kill rate (Table 11, 15 μl EMS) is reported as 10.17%. The “Cell counts (approximate cfu/ml)” value (Table 11, 25 μl EMS) was 1.72 × 10^9 cfu/ml, the Percent kill rate (Table 11, 25 μl EMS) was 30.92% and the “Cell counts (approximate cfu/ml)” value (Table 11, 50 μl EMS) was 1.67 × 10^1 cfu/ml. The “Cell counts (approximate cfu/ml)” value [1] was 1.27 × 10^9 cfu/ml, the Percent kill rate [1] was 73.09% and the “Cell counts (approximate cfu/ml)” value (Table 12, 35 μl EMS) was 5.37 × 10^8 cfu/ml. The Percent kill rate (Table 12, 35 μl EMS) was 88.58%, the “Cell counts (approximate cfu/ml)” value (Table 12, 50 μl EMS) was 2.93 × 10^2 cfu/ml and the Percent kill rate (Table 12, 50 μl EMS) was 100%. For the same compound, the “Cell counts (approximate cfu/ml)” value (Table 13, 40 μl EMS) was 6.97 × 10^8 cfu/ml, the Percent kill rate (Table 13, 40 μl EMS) was 82.26% and the “Cell counts (approximate cfu/ml)” value (Table 13, 45 μl EMS) was 8.57 × 10^7 cfu/ml. For the same compound, the Percent kill rate (Table 13, 45 μl EMS) was 97.82%, the “Cell counts (approximate cfu/ml)” value (Table 13, 50 μl EMS) was 2.65 × 10^5 cfu/ml and the Percent kill rate (Table 13, 50 μl EMS) was 99.99%. For the same compound, the “Cell counts (approximate cfu/ml)” value [2] was 1.35 × 10^9 cfu/ml, the Percent kill rate [2] was 99.81% and the “Cell counts (approximate cfu/ml)” value [3] was 5.27 × 10^8 cfu/ml. The Percent kill rate [3] was 99.93%, the “Cell counts (approximate cfu/ml)” value (Table 14 (repeat of Table 13), 50 μl EMS) was 2.19 × 10^6 cfu/ml and the “Cell counts (approximate cfu/ml)” value [4] was 3.33 × 10^4 cfu/ml. For the same compound, the Percent kill rate [4] was 99.98%, the “Cell counts (approximate cfu/ml)” value [5] was 4.33 × 10^1 cfu/ml and the Percent kill rate [5] was 100%.

Reference: patent publication US9700057B2, “Bradyrhizobium strains” (NOVOZYMES BIOAG A/S, priority 2011, dated 2017)
